“Also recorded” adds a separate entry of the source. Read-outs that look alike come from different tables or passages of the source. One block for each compound: values may come before it.
How the values were obtained:
[1] = system: human colorectal carcinoma cell line HT29; experiment: MTS cell viability assay, HT-29; type: cell-based
Text: The comestible use of the fruit products and its potential anticancer properties prompted the current investigation as to whether the active constituents could be used to treat colorectal cancer. The robust MTS cell viability assay with the p53-mutant human colon HT-29 cell line served as an assay-guided screening tool for the purification of the active principles of the fruit extract (see further description in the Example section).
Erythroleukemia K562, human colon HT-29 and breast MCF-7 cancer cell lines were obtained from the American Type Culture Collection (Manassas, Va., USA). All cells were maintained in Dulbecco's modified Eagle's medium (DMEM) supplemented with 10% fetal bovine serum, penicillin (100 U ml^−1) and streptomycin (100 U ml^−1). Cells were incubated at 37° C. in a 5% CO2 humidified atmosphere.
Cells were seeded at a density of 1.5×10^4 cells/well on a 96-well plate. When the cells reached 60 to 70% confluency, the growth medium was aspirated and the wells were rinsed with pre-warmed PBS. Test compounds at various concentrations or 1% DMSO (vehicle control) were then added and the plates were incubated for 72 h. After incubation, 40 μL of a solution of CellTiter 96 Aqueous One Solution (Promega, Madison, Wis., USA) containing MTS [3-(4,5-dimethylthiazol-2-yl)-5-(3-carboxymethoxyphenyl)-2-(4-sulfophenyl)-2H-tetrazolium)] and an electron coupling reagent (phenazine ethosulfate) were added to each well with an auto-repeat pipetor. The plates were incubated for 3 hours during which time the reagent was bio-reduced into a colored formazan product by the intracellular dehydrogenase enzymes of metabolically active cells. The quantity of formazan produced is directly proportional to the number of living cells in the cultures. The absorbance (A) was measured at 490 nm (reference at 690 nm) on a PowerWave 200 microplate reader (Bio-Tek Instruments). The results were expressed as percent cell viability, calculated for each drug concentration using the formula:
% Viability=(A treated group/A control group)×100%.
(100% viability was represented by samples with DMSO vehicle control).
The half-maximal inhibitory concentration, IC50, values were obtained from the sigmoidal curve by plotting the percentage viability of cells against the drug concentration using Psi-Plot version 9, Poly Software International (Pearl River, N.Y., USA).

hepatic carcinoma = details: especially in high concentrations; Molecular Medicine Reports 2:725-732, 2009; cited from earlier work
colon cell line LoVo = details: Planta Medica 2010: 76:1672-1677; cited from earlier work
[2] = HT29, MTS cell viability, 72 h, average of two independent experiments in triplicate
[3] = HT-29, from dose-response curves (FIG. 4, FIG. 5), read-out: concentration inhibiting cell growth by 50% (IC50), molar basis

Structure (SMILES): COc1cc2c(c(OC)c1OC)-c1c(cc(OC)c(OC)c1OC)C[C@H](C)[C@@H](C)C2 [Deoxyschisandrin, deoxyschisandrin]
IC50 ([1]; Homo sapiens, HT-29, HT29, MTS cell viability, 72 h, average of two independent experiments in triplicate, read-out: Activity IC50): 140 µg/mL
IC50 ([1]; Homo sapiens, HT-29, from dose-response curves (FIG. 4, FIG. 5), read-out: concentration inhibiting cell growth by 50% (IC50), molar basis): 336 µM

Structure (SMILES): C/C=C(/C)C(=O)Oc1c(OC)c(OC)cc2c1-c1c(cc(OC)c(OC)c1OC)C[C@](C)(O)[C@@H](C)C2 [Angeloylgomisin H, angeloylgomisin H]
Activity IC50 [1, 2]: 348 µg/mL
anti-proliferative activity against HT-29 (in words) ([1]; HT-29): moderate activity
IC50 [1, 3]: 696 µM

The next lines start with results.

Activity IC50 [1, 2]: 300 µg/mL
IC50 [1, 3]: 716 µM
Structure (SMILES): COc1cc2c(c(OC)c1OC)-c1c(cc3c(c1OC)OCO3)C[C@H](C)[C@](C)(O)C2 [Gomisin A, gomisin A]

Activity IC50 [1, 2]: 17 µg/mL
IC50 [1, 3]: 43 µM
Structure (SMILES): COc1cc2c(c(OC)c1OC)-c1c(cc3c(c1OC)OCO3)C[C@H](C)[C@H](C)C2 [Gomisin N, gomisin N]
apoptosis induction in hepatic carcinoma (in words) (hepatic carcinoma): induces high apoptotic levels
activity against LoVo (in words) (colon cell line LoVo): do not find Gomisin N to be active

Activity IC50 [1, 2]: >1000 µg/mL
Structure (SMILES): COc1cc2c(c(OC)c1OC)-c1c(cc(OC)c(OC)c1OC)C[C@](C)(O)[C@@H](C)C2 [Schisandrin, schisandrin]
anti-proliferative activity against HT-29 (in words) ([1]; HT-29): devoid of detectable biological activity
anti-proliferative activity against HT-29 (in words) ([1]; HT-29, listed as schisandrin): does not show any activity; also recorded: inactive
